Measurements: patent US20250346616A1 (DIZAL (JIANGSU) PHARMACEUTICAL CO., LTD., priority 2022, published 2025)

Key:
[1] = molecular target: Recombinant ROCK1 (Homo sapiens (Human), UniProt Q13464); assay: Lance Ultra Kinase Assay, ROCK1 inhibition; assay type: biochemical; conditions: ATP at Km, 30 min pre-incubation, 1 h reaction
Method: The inhibition potency of compounds against these enzymes was assessed using Lance Ultra Kinase Assay. In brief, recombinant kinases were pre-incubated in the presence or absence of compound at room temperature for 30 minutes. The reaction was initiated by the addition of the ATP (Km) and substrate peptide which could be phosphorylated by kinases in the reaction. After 1 h incubation, the reaction was stopped by the addition of the detection reagent mix containing EDTA. The fluorescence was measured at 615 nm and 665 nm, respectively with excitation wavelength at 320 nm. The calculated signal ratio of 665 nm/615 nm is proportional to the kinase activity.

[2] = molecular target: Recombinant ROCK2 (Homo sapiens (Human), UniProt O75116); assay: Lance Ultra Kinase Assay, ROCK2 inhibition; assay type: biochemical; conditions: ATP at Km, 30 min pre-incubation, 1 h reaction
Chain of Recombinant ROCK2 (O75116 whole entry): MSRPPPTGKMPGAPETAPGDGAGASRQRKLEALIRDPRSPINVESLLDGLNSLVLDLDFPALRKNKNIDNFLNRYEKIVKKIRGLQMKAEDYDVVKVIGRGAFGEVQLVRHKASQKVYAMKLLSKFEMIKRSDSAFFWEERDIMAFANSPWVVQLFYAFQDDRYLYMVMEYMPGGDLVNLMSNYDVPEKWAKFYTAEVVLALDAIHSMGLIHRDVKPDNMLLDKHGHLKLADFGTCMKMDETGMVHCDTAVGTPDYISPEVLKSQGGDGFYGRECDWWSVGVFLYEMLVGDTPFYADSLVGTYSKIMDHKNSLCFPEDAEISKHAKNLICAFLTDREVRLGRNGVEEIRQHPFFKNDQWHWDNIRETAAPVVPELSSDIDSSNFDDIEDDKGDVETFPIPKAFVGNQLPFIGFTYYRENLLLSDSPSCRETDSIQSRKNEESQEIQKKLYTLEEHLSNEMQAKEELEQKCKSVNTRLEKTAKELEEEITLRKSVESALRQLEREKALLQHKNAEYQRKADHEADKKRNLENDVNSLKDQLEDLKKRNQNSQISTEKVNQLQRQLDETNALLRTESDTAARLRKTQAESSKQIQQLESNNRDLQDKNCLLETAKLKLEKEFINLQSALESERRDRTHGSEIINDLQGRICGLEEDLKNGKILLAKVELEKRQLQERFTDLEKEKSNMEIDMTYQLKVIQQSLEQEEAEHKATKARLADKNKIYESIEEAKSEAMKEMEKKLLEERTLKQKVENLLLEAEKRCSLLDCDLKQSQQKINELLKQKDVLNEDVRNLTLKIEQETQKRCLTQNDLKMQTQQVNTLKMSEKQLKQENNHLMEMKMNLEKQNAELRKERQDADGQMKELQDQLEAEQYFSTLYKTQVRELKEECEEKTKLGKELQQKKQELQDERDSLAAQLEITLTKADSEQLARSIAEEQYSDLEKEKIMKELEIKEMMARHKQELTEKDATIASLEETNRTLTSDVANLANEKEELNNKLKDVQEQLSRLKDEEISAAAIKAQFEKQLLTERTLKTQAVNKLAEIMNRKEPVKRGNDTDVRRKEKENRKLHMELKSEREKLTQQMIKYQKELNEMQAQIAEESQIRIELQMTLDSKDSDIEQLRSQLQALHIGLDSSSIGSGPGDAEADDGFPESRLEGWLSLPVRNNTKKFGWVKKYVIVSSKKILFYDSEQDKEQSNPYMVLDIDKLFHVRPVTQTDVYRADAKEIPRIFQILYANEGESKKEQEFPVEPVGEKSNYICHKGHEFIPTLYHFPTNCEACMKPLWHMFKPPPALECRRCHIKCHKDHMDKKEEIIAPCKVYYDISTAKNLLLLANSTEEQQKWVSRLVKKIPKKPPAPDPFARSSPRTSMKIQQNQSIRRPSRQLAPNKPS

Chain of Recombinant ROCK1 (Q13464 whole entry): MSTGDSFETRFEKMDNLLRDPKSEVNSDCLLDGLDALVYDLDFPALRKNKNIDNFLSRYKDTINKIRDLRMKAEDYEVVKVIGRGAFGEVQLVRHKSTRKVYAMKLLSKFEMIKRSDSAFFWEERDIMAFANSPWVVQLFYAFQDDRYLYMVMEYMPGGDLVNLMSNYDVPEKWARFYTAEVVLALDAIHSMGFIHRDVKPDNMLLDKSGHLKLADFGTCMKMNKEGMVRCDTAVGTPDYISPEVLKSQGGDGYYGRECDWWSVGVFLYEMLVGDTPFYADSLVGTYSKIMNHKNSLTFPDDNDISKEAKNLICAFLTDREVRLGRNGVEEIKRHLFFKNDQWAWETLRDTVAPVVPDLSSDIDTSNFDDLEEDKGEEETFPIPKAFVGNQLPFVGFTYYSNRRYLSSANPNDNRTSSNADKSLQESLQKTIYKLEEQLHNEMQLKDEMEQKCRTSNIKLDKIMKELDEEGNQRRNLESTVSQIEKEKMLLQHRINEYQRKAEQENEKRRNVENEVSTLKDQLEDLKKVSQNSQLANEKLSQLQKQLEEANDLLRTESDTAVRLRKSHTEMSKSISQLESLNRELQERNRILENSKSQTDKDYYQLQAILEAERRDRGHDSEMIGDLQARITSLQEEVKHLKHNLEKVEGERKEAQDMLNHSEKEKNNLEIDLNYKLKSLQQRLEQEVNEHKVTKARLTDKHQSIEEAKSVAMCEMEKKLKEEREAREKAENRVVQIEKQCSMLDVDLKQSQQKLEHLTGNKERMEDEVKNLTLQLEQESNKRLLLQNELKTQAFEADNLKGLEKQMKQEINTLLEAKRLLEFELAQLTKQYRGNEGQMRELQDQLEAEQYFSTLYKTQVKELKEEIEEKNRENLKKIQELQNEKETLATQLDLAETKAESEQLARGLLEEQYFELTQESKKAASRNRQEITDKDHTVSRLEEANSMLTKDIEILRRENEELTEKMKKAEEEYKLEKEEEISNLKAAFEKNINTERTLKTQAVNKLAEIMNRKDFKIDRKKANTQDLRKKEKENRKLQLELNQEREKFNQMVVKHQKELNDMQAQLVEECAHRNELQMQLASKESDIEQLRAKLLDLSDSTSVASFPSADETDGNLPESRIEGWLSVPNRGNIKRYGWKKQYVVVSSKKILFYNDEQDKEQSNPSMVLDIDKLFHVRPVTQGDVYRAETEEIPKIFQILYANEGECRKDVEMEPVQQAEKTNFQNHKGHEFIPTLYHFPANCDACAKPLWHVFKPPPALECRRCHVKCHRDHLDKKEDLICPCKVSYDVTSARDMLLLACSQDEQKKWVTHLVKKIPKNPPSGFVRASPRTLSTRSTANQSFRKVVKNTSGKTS

Structure (SMILES) | IC50 [1] [nM] | IC50 [2] [nM]
NCC(C(=O)Nc1cccc2c(-c3cn[nH]c3)c[nH]c12)C1CCOC1 (racemic) [Example 96, N-(3-(1H-pyrazol-4-yl)-1H-indol-7-yl)-3-amino-2-(tetrahydrofuran-3-yl)propanamide] | 7.3 | 4
N#Cc1cccc([C@@H](N)C(=O)Nc2cccc3c(-c4cn[nH]c4)c[nH]c23)c1 (single isomer, unassigned) [Example 68, N-(3-(1H-pyrazol-4-yl)-1H-indol-7-yl)-2-amino-2-(3-cyanophenyl) acetamide] | 4 | 1.5
CN1CCC(C(NC(=O)c2cccc3c(-c4cn[nH]c4)c[nH]c23)C2CCCCC2)CC1 (racemic) [Example 143, N-[cyclohexyl (1-methylpiperidin-4-yl)methyl]-3-(1H-pyrazol-4-yl)-1H-indole-7-carboxamide] | 397 | 315
NC[C@H](Cc1ccccc1)C(=O)Nc1cccc2c(-c3cn[nH]c3)c[nH]c12 [Example 54, (2S)-3-amino-2-benzyl-N-[3-(1H-pyrazol-4-yl)-1H-indol-7-yl]propanamide] | 0.18 | 0.09
COc1cc(OC)cc(C(N)C(=O)Nc2cccc3c(-c4cn[nH]c4)c[nH]c23)c1 (racemic) [Example 83, 2-amino-2-(3,5-dimethoxyphenyl)-N-[3-(1H-pyrazol-4-yl)-1H-indol-7-yl]acetamide] | 7.3 | 3.1
COc1cncc(C(CN)C(=O)Nc2cccc3c(-c4cn[nH]c4)c[nH]c23)c1 (racemic) [Example 102, 3-amino-2-(5-methoxypyridin-3-yl)-N-[3-(1H-pyrazol-4-yl)-1H-indol-7-yl]propanamide] | 1.3 | 0.56
Cc1cncc(C(CN)C(=O)Nc2cccc3c(-c4cn[nH]c4)c[nH]c23)c1 (single isomer, unassigned) [Example 62, N-(3-(1H-pyrazol-4-yl)-1H-indol-7-yl)-3-amino-2-(5-methylpyridin-3-yl)propanamide] | 68 | 31
COc1cccc(C(CN2CCN(C)CC2)C(=O)Nc2cccc3c(-c4cn[nH]c4)c[nH]c23)c1 (single isomer, unassigned) [Example 35, N-(3-(1H-pyrazol-4-yl)-1H-indol-7-yl)-2-(3-methoxyphenyl)-3-(4-methylpiperazin-1-yl)propanamide] | 1.8 | 0.76
NC[C@@H](Cc1ccccc1)C(=O)Nc1cccc2c(-c3cn[nH]c3)c[nH]c12 [Example 53, (2R)-3-amino-2-benzyl-N-[3-(1H-pyrazol-4-yl)-1H-indol-7-yl]propanamide] | 5.8 | 4.1
COc1cccc([C@H](C(=O)Nc2cccc3c(-c4cn[nH]c4)c[nH]c23)C2CCN(C)CC2)c1 (single isomer, unassigned) [Example 30, N-(3-(1H-pyrazol-4-yl)-1H-indol-7-yl)-2-(3-methoxyphenyl)-2-(1-methylpiperidin-4-yl) acetamide] | 3.2 | 1.1
Cc1n[nH]c(C)c1-c1c[nH]c2c(NC(=O)[C@H](CN)c3ccccc3)cccc12 [Example 56, (2S)-3-amino-N-[3-(3,5-dimethyl-1H-pyrazol-4-yl)-1H-indol-7-yl]-2-phenyl-propanamide] | 1190 | –
COc1ccc(C(CN)NC(=O)c2cccc3c(-c4cn[nH]c4)c[nH]c23)cc1 (single isomer, unassigned) [Example 144, N-(2-amino-1-(4-methoxyphenyl)ethyl)-3-(1H-pyrazol-4-yl)-1H-indole-7-carboxamide] | 60 | 32
CN(C)Cc1cccc(C(CN)C(=O)Nc2cccc3c(-c4cn[nH]c4)c[nH]c23)c1 (racemic) [Example 78, 3-amino-2-{3-[(dimethylamino)methyl]phenyl}-N-[3-(1H-pyrazol-4-yl)-1H-indol-7-yl]propanamide] | 34 | 16
NC[C@H](C(=O)Nc1cccc2c(-c3cn[nH]c3)c[nH]c12)c1ccccc1 [Example 14, (R)-N-(3-(1H-pyrazol-4-yl)-1H-indol-7-yl)-3-amino-2-phenylpropanamide] | 2.2 | –
NCC(C(=O)Nc1cccc2c(-c3cn[nH]c3)c[nH]c12)c1ccc(C(=O)O)cc1 (racemic) [Example 71, 4-(2-amino-1-{[3-(1H-pyrazol-4-yl)-1H-indol-7-yl]carbamoyl}ethyl)benzoic acid] | 227 | 64
NCCC(NC(=O)c1cccc2c(-c3cn[nH]c3)c[nH]c12)c1ccccc1 (racemic) [Example 140, N-(3-amino-1-phenylpropyl)-3-(1H-pyrazol-4-yl)-1H-indole-7-carboxamide] | 2.8 | 0.86
Cc1ccc(C(=O)OCc2ccc(C(CN)C(=O)Nc3cccc4c(-c5cn[nH]c5)c[nH]c34)cc2)c(C)c1 (single isomer, unassigned) [Example 6] | 442 | 247
NCC(C(=O)Nc1cccc2c(-c3cn[nH]c3)c[nH]c12)c1cccc(N)c1 (racemic) [Example 81, 3-amino-2-(3-aminophenyl)-N-[3-(1H-pyrazol-4-yl)-1H-indol-7-yl]propanamide] | 1.8 | 0.91
NC[C@@H](C(=O)Nc1ncnc2c(-c3cn[nH]c3)c[nH]c12)c1ccccc1 [Example 155, (2S)-3-amino-2-phenyl-N-[7-(1H-pyrazol-4-yl)-5H-pyrrolo[3,2-d]pyrimidin-4-yl]propanamide] | 0.96 | –
NC[C@@H](C(=O)Nc1cccc2c(-c3cn[nH]c3)c[nH]c12)c1ccccc1 [Example 15, (S)—N-(3-(1H-pyrazol-4-yl)-1H-indol-7-yl)-3-amino-2-phenylpropanamide] | 1.4 | –
N[C@H](Cc1ccccc1)C(=O)Nc1cccc2c(-c3cn[nH]c3)c[nH]c12 [Example 126, (R)-N-(3-(1H-pyrazol-4-yl)-1H-indol-7-yl)-2-amino-3-phenylpropanamide] | 6.3 | –
N[C@@H](C(=O)Nc1cccc2c(-c3cn[nH]c3)c[nH]c12)c1ccccc1 [Example 8, (2R)-2-amino-2-phenyl-N-[3-(1H-pyrazol-4-yl)-1H-indol-7-yl]acetamide] | 20 | –
COC[C@H](C(=O)Nc1cccc2c(-c3cn[nH]c3)c[nH]c12)N1CCN(C)CC1 [Example 121, (2R)-3-methoxy-2-(4-methylpiperazin-1-yl)-N-[3-(1H-pyrazol-4-yl)-1H-indol-7-yl]propanamide] | 75 | –
Cc1n[nH]cc1-c1c[nH]c2c(NC(=O)[C@H](CN)c3ccccc3)cccc12 [Example 55, (S)-3-amino-N-(3-(3-methyl-1H-pyrazol-4-yl)-1H-indol-7-yl)-2-phenylpropanamide] | 2.9 | –
NC[C@@H](C(=O)Nc1cccc2c(-c3c[nH]nc3F)c[nH]c12)c1ccccc1 [Example 57, (S)-3-amino-N-(3-(3-fluoro-1H-pyrazol-4-yl)-1H-indol-7-yl)-2-phenylpropanamide] | 2.7 | –
N[C@@H](Cc1c[nH]cn1)C(=O)Nc1cccc2c(-c3cn[nH]c3)c[nH]c12 [Example 108, (2S)-2-amino-3-(1H-imidazol-4-yl)-N-[3-(1H-pyrazol-4-yl)-1H-indol-7-yl]propanamide] | 98 | –
O=C(Nc1cccc2c(-c3cn[nH]c3)c[nH]c12)[C@@H]1CCCN1 [Example 128, (2S)-N-[3-(1H-pyrazol-4-yl)-1H-indol-7-yl]pyrrolidine-2-carboxamide] | 111 | –
